The assay deals with PAN endonuclease (Influenza A virus, UniProt C3W5S0). As to the kind of experiment: FRET-based enzymatic assay of PAN endonuclease inhibition. The class given is biochemical.

In general, IC50 refers to the point on the concentration scale where inhibition reaches its midpoint.

As for “[Ru(2,2´-bipyridine)2(pyridine)2][Cl]2 [Compound 9]”, the “enzymatic inhibition upon light irradiation” value is “negligible”. Turning to `[Cl][Ru][Cl].c1ccc(-c2ccccn2)nc1.c1ccc(-c2ccccn2)nc1` [Compound 2, Ru(2,2´-bipyridine)2(Cl)2], the IC50 (read-out: IC50 (dark)) is more than 100 µM.

Source of the values: paper PMC7944940 (Dalton transactions (Cambridge, England : 2003), 2021).
